From patent US6262046A, “Azetidinylpropylpiperidine derivatives, intermediates and use as tachykinin antagonists” (Pfizer Inc., priority 1997, dated 2001)
pIC50: −log10 of the molar value.

Molecular target: T1, guinea pig cortex NK3 receptor (Cavia porcellus, UniProt P30098)
T1 construct: guinea pig cortex NK3 receptor; from tissue; host or cells: guinea pig (brain) cortex, prepared by the cited method of Guard et al., Br. J. Pharmacol. (1990), 99, 767
T1 sequence (P30098 1-440): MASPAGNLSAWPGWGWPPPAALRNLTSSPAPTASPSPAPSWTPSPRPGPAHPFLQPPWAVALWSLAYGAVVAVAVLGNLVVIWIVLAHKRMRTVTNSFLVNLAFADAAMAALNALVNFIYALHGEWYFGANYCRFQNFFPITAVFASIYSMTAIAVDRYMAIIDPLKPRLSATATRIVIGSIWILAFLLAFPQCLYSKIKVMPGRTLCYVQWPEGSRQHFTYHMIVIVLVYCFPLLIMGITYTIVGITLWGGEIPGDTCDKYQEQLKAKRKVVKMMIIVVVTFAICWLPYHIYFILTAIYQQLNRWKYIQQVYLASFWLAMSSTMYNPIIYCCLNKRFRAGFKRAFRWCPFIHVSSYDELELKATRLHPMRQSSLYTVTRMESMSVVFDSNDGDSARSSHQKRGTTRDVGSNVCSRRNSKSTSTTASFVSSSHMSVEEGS
Experiment: in vitro affinity for the guinea pig cortex NK3 receptor (displacement of [^3 H] senktide)
Type: binding
Conditions: displacement of [^3 H] senktide at guinea pig cortex NK3 receptor
Procedure: The affinity of the compounds of formula (I) and their salts for the NK3 receptor can be tested in vitro by testing their ability to displace [^3 H] senktide at the guinea pig cortex NK3 receptor. The receptors are prepared by the method described by S. Guard, et al, in Br.J.Pharmacol. (1990), 99, 767.
The data below illustrates the in vitro affinity of substances of the invention for the guinea pig cortex NK3 receptor, which assays were carried out according to the method mentioned earlier on page 15.

Row | Structure (SMILES) | pIC50
1 | CS(=O)(=O)N1CCN(C2CN(CCC[C@]3(c4ccc(Cl)c(Cl)c4)CCCN(C(=O)c4ccccc4)C3)C2)CC1 [Example 3, (+)-3(R)-1-Benzoyl-3-(3,4-dichlorophenyl)-3-(3-[3-(4-methanesulphonylpiperazin-1-yl)azetidin-1-yl]propyl)piperidine] | 8.80
2 | CS(=O)(=O)N(c1ccccc1)C1CN(CCC[C@]2(c3ccc(Cl)c(Cl)c3)CCCN(C(=O)c3ccccc3)C2)C1 [Example 13] | 7.95
3 | CS(=O)(=O)N1CCN(C2CN(CCC[C@]3(c4ccc(Cl)c(Cl)c4)CCCN(C(=O)c4ccc(F)c(F)c4)C3)C2)CC1 [Example 17, (+)-3(R)-3-(3,4-Dichlorophenyl)-1-(3,4-difluorobenzoyl)-3-(3-[3-(4-methanesulphonylpiperazin-1-yl)azetidin-1-yl]propyl)piperidine] | 8.40
